Reference: US11053221B2, “Substituted pyrimidines for inhibiting embryonic leucine zipper kinase activity” (Arrien Pharmaceuticals LLC, priority 2018, dated 2021)

Legend:
MELK = molecular target: T1, MELK (Homo sapiens, UniProt Q14680); test: HotSpot kinase assay, MELK; assay type: biochemical; conditions: HotSpot radiometric 33P ATP assay, 25° C., 120 min
T1 construct: purchased Reaction Biology Corporation
Description: (§1) In vitro profiling of the MELK, MELK (T460M) kinase panel was performed at Reaction Biology Corporation using the “HotSpot” assay platform. In vitro profiling of the FLT3, FLT3 mutant forms; FLT3 (D835Y), FLT3 (F594R595insR), FLT3 (F594R595insREY), FLT3 (ITD), FLT3 (ITD)-NPOS, FLT3 (ITD)-W51 and FLT3 (R595_E596insEY) kinase panel is performed in the same manner.
(§2) Briefly, specific kinase/substrate pairs along with required cofactors were prepared in reaction buffer; 20 mM Hepes (pH 7.5), 10 mM MgCl2, 1 mM EGTA, 0.02% Brij35, 0.02 mg/mL BSA, 0.1 mM Na3VO4, 2 mM DTT, 1% DMSO. Compounds were delivered into the reaction, followed ˜20 min later by addition of a mixture of ATP (Sigma) and ^33P ATP (PerkinElmer) to a final concentration of […]. Reactions were carried out at 25° C. for 120 min, followed by spotting of the reactions onto P81 ion exchange filter paper (Whatman). Unbound phosphate was removed by extensive washing of filters in 0.75% phosphoric acid. […] IC50 values and curve fits were obtained using Prism (GraphPad Software).

FLT3 = molecular target: T2, FLT3 (Homo sapiens, UniProt P36888); test: HotSpot kinase assay, FLT3; assay type: biochemical; conditions: HotSpot radiometric 33P ATP assay, 25° C., 120 min
T2 construct: purchased Reaction Biology Corporation
T2 sequence (P36888 27-993): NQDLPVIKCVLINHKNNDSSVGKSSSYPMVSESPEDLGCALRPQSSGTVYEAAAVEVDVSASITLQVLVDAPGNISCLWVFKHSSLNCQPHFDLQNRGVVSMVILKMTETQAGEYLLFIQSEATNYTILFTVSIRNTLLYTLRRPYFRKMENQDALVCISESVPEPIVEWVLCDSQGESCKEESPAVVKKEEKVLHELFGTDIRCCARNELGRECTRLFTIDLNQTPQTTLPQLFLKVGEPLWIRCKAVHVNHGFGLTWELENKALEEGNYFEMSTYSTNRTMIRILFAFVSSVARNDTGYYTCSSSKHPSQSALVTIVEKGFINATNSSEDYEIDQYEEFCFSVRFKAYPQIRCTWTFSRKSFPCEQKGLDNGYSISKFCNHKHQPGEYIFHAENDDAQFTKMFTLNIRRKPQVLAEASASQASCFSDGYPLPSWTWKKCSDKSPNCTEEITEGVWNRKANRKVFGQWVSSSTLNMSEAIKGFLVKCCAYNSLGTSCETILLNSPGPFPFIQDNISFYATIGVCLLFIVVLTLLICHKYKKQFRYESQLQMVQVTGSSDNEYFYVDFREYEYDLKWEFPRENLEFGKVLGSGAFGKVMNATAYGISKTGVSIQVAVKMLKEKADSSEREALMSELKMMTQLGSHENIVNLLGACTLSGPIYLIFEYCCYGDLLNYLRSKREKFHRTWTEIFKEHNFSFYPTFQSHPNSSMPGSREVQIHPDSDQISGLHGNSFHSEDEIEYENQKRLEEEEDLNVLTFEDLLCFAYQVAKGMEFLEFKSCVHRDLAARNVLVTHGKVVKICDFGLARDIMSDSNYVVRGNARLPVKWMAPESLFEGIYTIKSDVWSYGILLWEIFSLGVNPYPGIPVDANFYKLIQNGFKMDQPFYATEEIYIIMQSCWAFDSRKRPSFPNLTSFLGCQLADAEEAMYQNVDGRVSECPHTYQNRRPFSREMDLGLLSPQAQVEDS
Description: as §1, §2

T1 sequence (Q14680 whole entry): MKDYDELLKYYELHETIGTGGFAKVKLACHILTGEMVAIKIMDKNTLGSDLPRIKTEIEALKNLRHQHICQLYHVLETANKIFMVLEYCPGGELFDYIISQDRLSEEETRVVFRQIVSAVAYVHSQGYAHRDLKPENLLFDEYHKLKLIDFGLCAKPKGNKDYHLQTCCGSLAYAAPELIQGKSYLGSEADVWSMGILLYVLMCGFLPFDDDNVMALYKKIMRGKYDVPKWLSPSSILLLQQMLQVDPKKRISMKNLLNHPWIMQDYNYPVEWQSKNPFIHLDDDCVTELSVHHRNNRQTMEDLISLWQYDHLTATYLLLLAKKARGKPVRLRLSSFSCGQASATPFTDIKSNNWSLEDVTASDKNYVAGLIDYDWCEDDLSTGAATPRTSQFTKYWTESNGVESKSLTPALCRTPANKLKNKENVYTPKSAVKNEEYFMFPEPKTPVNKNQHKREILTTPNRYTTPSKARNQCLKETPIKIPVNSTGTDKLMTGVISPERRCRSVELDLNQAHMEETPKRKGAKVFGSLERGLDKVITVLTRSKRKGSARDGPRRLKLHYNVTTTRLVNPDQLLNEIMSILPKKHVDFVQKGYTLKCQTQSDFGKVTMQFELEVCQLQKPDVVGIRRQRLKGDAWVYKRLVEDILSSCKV

Row | Compound | IC50 (MELK) | IC50 (FLT3)
1 | Fc1ccccc1-n1cc(-c2ncnc(Cl)c2OCC2CCNCC2)cn1 [Compound I-27, 4-chloro-6-(1-(2-fluorophenyl)-1H-pyrazol-4-yl)-5-(piperidin-4-ylmethoxy)pyrim-idine] | 200 to 1000 nM | < 200 nM
2 | c1ccc(-n2cc(-c3ncncc3OCC3CCNCC3)cn2)cc1 [Compound I-28, 4-(1-phenyl-1H-pyrazol-4-yl)-5-(piperidin-4-ylmethoxy)pyrim-idine] | 200 to 1000 nM | 200 to 1000 nM
3 | Fc1cccc(F)c1-n1cc(-c2ncnc(Cl)c2OCC2CCNCC2)cn1 [Compound I-29, 4-chloro-6-(1-(2,6-difluorophenyl)-1H-pyrazol-4-yl)-5-(piperidin-4-ylmethoxy)pyrim-idine] | > 1000 nM | 200 to 1000 nM
4 | Fc1cccc(F)c1-n1cc(-c2ncncc2OCC2CCNCC2)cn1 [Compound I-30, 4-(1-(2,6-difluorophenyl)-1H-pyrazol-4-yl)-5-(piperidin-4-ylmethoxy)pyrim-idine] | 200 to 1000 nM | 200 to 1000 nM
5 | OC1CCC(COc2cncnc2-c2cnn(-c3ccccc3F)c2)CC1 (stereo not drawn) [Compound I-31, 4-(((4-(1-(2-fluorophenyl)-1H-pyrazol-4-yl)pyrimidin-5-yl)oxy)methyl)cyclo-hexan-1-ol] | > 1000 nM | 200 to 1000 nM
6 | CN1CCN(c2ccc(-n3cc(-c4ncncc4OC[C@H]4CC[C@@H](N)CC4)cn3)cc2)CC1 [Compound I-32, (1s,4s)-4-(((4-(1-(4-(4-methylpiperazin-1-yl)phenyl)-1H-pyrazol-4-yl)pyrimidin-5-yl)oxy)methyl)cyclo-hexan-1-amine] | < 200 nM | < 200 nM
7 | N[C@H]1CC[C@@H](COc2cncnc2-c2cnn(-c3ccc(N4CCOCC4)cc3)c2)CC1 [Compound I-33, (1s,4s)-4-(((4-(1-(4-morpholinophenyl)-1H-pyrazol-4-yl)pyrimidin-5-yl)oxy)methyl)cyclo-hexan-1-amine] | < 200 nM | < 200 nM
8 | CCS(=O)(=O)c1ccc(-n2cc(-c3ncncc3OC[C@H]3CC[C@@H](N)CC3)cn2)cc1 [Compound I-34, (1s,4s)-4-(((4-(1-(4-(ethylsulfonyl)phenyl)-1H-pyrazol-4-yl)pyrimidin-5-yl)oxy)methyl)cyclo-hexan-1-amine] | 200 to 1000 nM | < 200 nM
9 | CCS(=O)(=O)c1ccc(-n2cc(-c3ncncc3OC[C@H]3CC[C@@H](N)CC3)cn2)c(F)c1 [Compound I-35, (1s,4s)-4-(((4-(1-(4-(ethylsulfonyl)-2-fluorophenyl)-1H-pyrazol-4-yl)pyrimidin-5-yl)oxy)methyl)cyclo-hexan-1-amine] | 200 to 1000 nM | 200 to 1000 nM
